System: African-American individuals with SCN5A variant S1103Y
Settings: carriers of SCN5A S1103Y variant; three individuals after amiodarone treatment, one after infusion of brevital; QT prolongation exacerbated in these cases
Description: To determine the genetic basis for these arrhythmias, individuals with drug-induced torsade de pointes and ventricular fibrillation were screened for mutations in known arrhythmia genes.

Structure (SMILES): C=CCC1(C(C)C#CCC)C(=O)N=C([O-])N(C)C1=O.[Na+] (stereo not shown) [brevital]
- arrhythmia after drug treatment: experienced arrhythmia
